Laboratory results from ChEMBL document CHEMBL6177963, “Development of acylhydrazone linked thiazoles as non-covalent dual inhibitors of SARS-CoV-2 proteases” (Eur J Med Chem, 2025).
Calls of active or inactive are those of the source. No cut-off for these calls is given here.

Assays:
[1] = molecular target: Replicase polyprotein 1ab (Severe acute respiratory syndrome coronavirus 2, UniProt P0DTD1); experiment: Inhibition of recombinant SARS-CoV-2 PLpro using TLKGGI-AMC as substrate assessed as assessed as inhibition constant ny measuring fluorescence signal measured after 15 mins
[2] = test system: Severe acute respiratory syndrome coronavirus 2; experiment: Binding affinity to SARS-CoV-2 MPro assessed as thermal stability by measuring melting temperature of half of the proteins unfolded by differential scanning fluorimetry (DSF) (reference value: 52.46 degC)
[3] = Cytotoxicity against human HEK293 cells assessed as cell viability measured after 48 hrs by MTT assay; format: toxicity, cell-based
[4] = Cytotoxicity against African green monkey Vero E6 cells assessed as cell viability at 100 uM measured after 48 hrs by MTT assay relative to control; format: toxicity, cell-based, Vero C1008; conditions: chlorocebus sabaeus, read-out: Activity
SARS-CoV-2 [5] = experiment: Antiviral activity against SARS-CoV-2 infected in African green monkey Vero E6 cells assessed as viral reduction by measuring viral RNA measured up to 72 hrs by RT-PCR analysis; format: functional, organism-based; conditions: Severe acute respiratory syndrome coronavirus 2, SARS-CoV-2, Vero C1008, 72 h
[6] = molecular target: Chymotrypsin (Homo sapiens) (UniProt Q99895+P17538+P40313+Q6GPI1); experiment: Inhibition of Chymotrypsin (unknown origin) assessed as BSA digestion; format: protein assay
SARS-CoV-2 [7] = experiment: Antiviral activity against SARS-CoV-2 infected in African green monkey Vero E6 cells assessed as viral load reduction at 4 uM by measuring viral RNA measured up to 72 hrs by RT-PCR analysis relative to control; format: functional, Severe acute respiratory syndrome coronavirus 2, Vero C1008; parameters: scale not given: the % may be the effect or the level left
[8] = molecular target: Replicase polyprotein 1ab (Severe acute respiratory syndrome coronavirus 2) (UniProt P0DTD1); experiment: Binding affinity to SARS-CoV-2 PLpro assessed as thermal stability by measuring melting temperature of half of the proteins unfolded by differential scanning fluorimetry (DSF) (reference value: 45.79 degC)
[9] = molecular target: Replicase polyprotein 1ab (Severe acute respiratory syndrome coronavirus 2) (UniProt P0DTD1); experiment: Inhibition of recombinant SARS-CoV-2 PLpro using TLKGGI-AMC as substrate assessed as assessed as inhibition constant ny measuring fluorescence signal at 10 uM measured after 15 mins relative to control
SARS-CoV-2 [10] = experiment: Anti-viral activity against SARS-CoV-2 BavPat1 infected in Vero E6 cells assessed as inhibition of viral RNA replication; format: functional, organism-based; conditions: Severe acute respiratory syndrome coronavirus 2, BavPat1, Vero C1008
[11] = test system: Severe acute respiratory syndrome coronavirus 2; experiment: Non-covalent inhibition of SARS-CoV-2 MPro by Lineweaver-Burk Plot analysis
[12] = molecular target: Replicase polyprotein 1ab (Severe acute respiratory syndrome coronavirus 2) (UniProt P0DTD1); experiment: Non-covalent inhibition of SARS-CoV-2 PLpro by Lineweaver-Burk Plot analysis
SARS-CoV-2 [13] = experiment: Antiviral activity against SARS-CoV-2 infected in African green monkey Vero E6 cells assessed as viral load reduction at 0.125 uM by measuring viral RNA measured up to 72 hrs by RT-PCR analysis relative to control; format: functional, Severe acute respiratory syndrome coronavirus 2, Vero C1008; parameters: scale not given: the % may be the effect or the level left

Compound: Cc1ccc(-c2csc(NNC(=O)c3ccc([N+](=O)[O-])cc3)n2)cc1
- Ki ([1]; read-out: Ki): 1250 nM
- Tm [2]: 52.6 °C
- IC50 at 48 h [3]: 6690 nM
- viability at 48 h, 100 µM [4]: 82.3%
- EC50 (SARS-CoV-2 [5]): 126 nM
- inhibition [6]: inactive
- Activity (SARS-CoV-2 [7]): >80%
- Tm [8]: 41.4 °C

Compound: O=C(NNc1nc(-c2ccc(Cl)cc2)cs1)c1ccc(Cl)cc1
- Ki ([1]; read-out: Ki): 500 nM
- IC50 at 48 h [3]: 14000 nM
- viability at 48 h, 100 µM [4]: 87%
- EC50 (SARS-CoV-2 [5]): 64 nM
- Activity (SARS-CoV-2 [7]): >80%
- Tm [8]: 47.5 °C

Compound: CCOC(=O)c1sc(NNC(=O)c2ccccc2C)nc1C
- Ki [1]: Not_active
- inhibition [9]: < 50%

Compound: Cc1ccc(C(=O)NNc2nc(-c3ccc(Br)cc3)cs2)cc1
- Ki [1]: Not_active
- inhibition [9]: < 50%

Compound: O=C(NNc1nc(-c2ccc(Cl)cc2)cs1)c1ccc(F)cc1
- Ki ([1]; read-out: Ki): 180 nM
- IC50 at 48 h [3]: 41200 nM
- viability at 48 h, 100 µM [4]: 86.5%
- EC50 (SARS-CoV-2 [5]): 41 nM
- Activity (SARS-CoV-2 [7]): >80%
- Tm [8]: 47.1 °C

Compound: CC(=O)Oc1ccccc1C(=O)Nc1ncc([N+](=O)[O-])s1 [NITAZOXANIDE]
- EC50 (SARS-CoV-2 [10]): 7480 nM

Compound: COC(=O)c1sc(NNC(=O)c2ccc([N+](=O)[O-])cc2)nc1C
- Ki [1]: Not_active
- inhibition [9]: < 50%

Compound: Clc1nc2ccccc2cc1/C=N/Nc1nc(-c2ccccc2)cs1
- Ki [1]: Not_active
- inhibition [9]: < 50%

Compound: O=C(NNc1ncc(-c2ccc(Cl)cc2)s1)c1ccc2ccccc2c1
- Ki ([1]; read-out: Ki): 2130 nM

Compound: CCOC(=O)c1sc(NNC(=O)c2ccc3ccccc3c2)nc1C
- Ki ([1]; read-out: Ki): 660 nM

Compound: O=C(NNc1nc(-c2ccc(Cl)cc2)cs1)c1ccc(Br)cc1
- Ki [1]: Not_active
- inhibition [9]: < 50%

Compound: O=C(NNc1ncc(-c2ccc(Cl)cc2)s1)c1cccc(Cl)c1
- Ki ([1]; read-out: Ki): 4230 nM

Compound: CCOC(=O)c1sc(NNC(=O)c2ccc(F)cc2)nc1C
- Ki [1]: Not_active
- inhibition [9]: < 50%

Compound: O=C(NNc1nc(-c2ccc(Br)cc2)cs1)c1ccc(F)cc1
- Ki ([1]; read-out: Ki): 150 nM
- Tm [2]: 51.1 °C
- IC50 at 48 h [3]: 10500 nM
- Activity [11]: Active
- viability at 48 h, 100 µM [4]: 91.8%
- inhibition [6]: inactive
- Tm [8]: 45.9 °C
- Activity [12]: Active

Compound: CCOC(=O)c1sc(NNC(=O)c2ccccc2)nc1C
- Ki [1]: Not_active
- inhibition [9]: < 50%

Compound: O=C(NNc1nc(-c2ccc(Br)cc2)cs1)c1ccc([N+](=O)[O-])cc1
- Ki ([1]; read-out: Ki): 4220 nM
- viability at 48 h, 100 µM [4]: 99.5%
- inhibition [6]: inactive

Compound: O=C(NNc1nc(-c2ccc(Br)cc2)cs1)c1ccccc1
- Ki [1]: Not_active
- inhibition [9]: < 50%

Compound: Cc1ccc(-c2csc(NNC(=O)c3ccc(F)cc3)n2)cc1
- Ki ([1]; read-out: Ki): 340 nM
- IC50 at 48 h [3]: 25300 nM
- viability at 48 h, 100 µM [4]: 92.1%
- EC50 (SARS-CoV-2 [5]): 38 nM
- inhibition [6]: inactive
- Activity (SARS-CoV-2 [13]): >70%
- Activity (SARS-CoV-2 [7]): >70%
- Tm [8]: 47.1 °C

Compound: CCOC(=O)c1sc(NNC(=O)c2cccs2)nc1C
- Ki ([1]; read-out: Ki): 230 nM
- Tm [2]: 49.8 °C
- IC50 at 48 h [3]: 45800 nM
- Activity [11]: Active
- viability at 48 h, 100 µM [4]: 87.9%
- EC50 (SARS-CoV-2 [5]): 118 nM
- inhibition [6]: inactive
- Activity (SARS-CoV-2 [7]): >70%
- Tm [8]: 41.1 °C
- Activity [12]: Active

Compound: O=C(O)c1ccccc1/C=N/Nc1ncc(-c2ccccc2Cl)s1
- EC50 (SARS-CoV-2 [10]): 1590 nM

Compound: Oc1ccc(/C=N/Nc2nc(-c3ccc(Cl)cc3)cs2)cc1
- Ki ([1]; read-out: Ki): 290 nM
- Tm [2]: 51.4 °C
- IC50 at 48 h [3]: 194000 nM
- viability at 48 h, 100 µM [4]: 91%
- inhibition [6]: inactive
- Tm [8]: 44.3 °C
- Activity [12]: Active

Compound: CCOC(=O)c1sc(NNC(=O)c2cccc(Br)c2)nc1C
- Ki [1]: Not_active
- inhibition [9]: < 50%

Compound: CCOC(=O)c1sc(NNC(=O)c2ccc(Cl)cc2)nc1C
- Ki [1]: Not_active
- Tm [2]: 52.1 °C
- IC50 at 48 h [3]: 45500 nM
- viability at 48 h, 100 µM [4]: 92.5%
- EC50 (SARS-CoV-2 [5]): 72 nM
- inhibition [6]: inactive
- Activity (SARS-CoV-2 [13]): >70%
- Activity (SARS-CoV-2 [7]): >80%
- Tm [8]: 44.7 °C
- Activity [12]: Active

Compound: Cc1ccc(C(=O)NNc2nc(-c3ccc(C)cc3)cs2)cc1
- Ki [1]: Not_active
- inhibition [9]: < 50%

Compound: CCOC(=O)c1sc(NNC(=O)c2ccccc2OC)nc1C
- Ki [1]: Not_active

Compound: CN(/N=C/c1ccccc1C(=O)O)c1ncc(-c2ccccc2Cl)s1
- EC50 (SARS-CoV-2 [10]): 14 nM

Compound: O=C(NNc1nc(-c2ccc(Br)cc2)cs1)c1ccc(Br)cc1
- Ki [1]: Not_active
- inhibition [9]: < 50%

Compound: CCOC(=O)c1sc(NNC(=O)c2cccc(Cl)c2)nc1C
- Ki [1]: Not_active
- inhibition [9]: < 50%

Compound: Cc1ccc(C(=O)NNc2nc(-c3ccc(Cl)cc3)cs2)cc1
- Ki ([1]; read-out: Ki): 240 nM
- Tm [2]: 51.8 °C
- IC50 at 48 h [3]: 41100 nM
- viability at 48 h, 100 µM [4]: 91.5%
- EC50 (SARS-CoV-2 [5]): 68 nM
- inhibition [6]: inactive
- Activity (SARS-CoV-2 [7]): >70%
- Tm [8]: 45.8 °C
- Activity [12]: Active

Compound: CCOC(=O)c1sc(NNC(=O)c2ccc(Br)cc2)nc1C
- Ki ([1]; read-out: Ki): 500 nM
- Tm [2]: 49.7 °C
- IC50 at 48 h [3]: 219000 nM
- Activity [11]: Active
- viability at 48 h, 100 µM [4]: 86.9%
- EC50 (SARS-CoV-2 [5]): 116 nM
- inhibition [6]: inactive
- Activity (SARS-CoV-2 [7]): >80%
- Tm [8]: 41.5 °C
- Activity [12]: Active

Compound: Cc1ccc(-c2csc(NNC(=O)c3ccc(Cl)cc3)n2)cc1
- Ki [1]: Not_active
- inhibition [9]: < 50%

Compound: CCOC(=O)c1sc(NNC(=O)c2ccco2)nc1C
- Ki [1]: Not_active
- inhibition [9]: < 50%

Compound: CCOC(=O)c1sc(NNC(=O)c2ccc(C)cc2)nc1C
- Ki ([1]; read-out: Ki): 230 nM
- inhibition [9]: < 50%

Compound: O=C(NNc1nc(-c2ccc(Br)cc2)cs1)c1ccc(Cl)cc1
- Ki ([1]; read-out: Ki): 1720 nM
- viability at 48 h, 100 µM [4]: 86.7%
- inhibition [6]: inactive

Compound: Cc1ccc(-c2csc(NNC(=O)c3ccc(Br)cc3)n2)cc1
- Ki [1]: Not_active
- inhibition [9]: < 50%

Compound: CCOC(=O)c1sc(N/N=C/c2cc3ccccc3nc2Cl)nc1C
- Ki [1]: Not_active
